Source: patent US12319655B2, “RAF kinase inhibitors and methods of use thereof” (Deciphera Pharmaceuticals, LLC, priority 2021, dated 2025)

Key:
[1] = target: A-Raf kinase (SEQ. ID No: 1) (Homo sapiens (Human), UniProt P10398, Y301D/Y302D); experiment: Biochemical Assay for A-Raf (1); conditions: Table J, assay version (1); read-out: ARAF (1) IC50
Procedure, shortened: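 IC50 values were derived by four-parameter sigmoidal fitting of percent inhibition, calculated from reaction rates over the 4–5 h window. Absorbance at 340 nm was tracked for 6 h at 30 °C via coupled PK/LDH NADH depletion. Conditions: 1 mM ATP, 30.1 nM MEK substrate, 5.55 nM A-Raf (Y301D/Y302D), Tris pH 7.5, 1% DMSO.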

[2] = target: C-Raf kinase (SEQ. ID NO: 3) (Homo sapiens (Human), UniProt P04049, Y340D/Y341D); experiment: Biochemical Assay for C-Raf (1); conditions: Table J, assay version (1); read-out: CRAF (1) IC50
Sequence of C-Raf kinase (SEQ. ID NO: 3) (P04049 307-648 Y340D/Y341D): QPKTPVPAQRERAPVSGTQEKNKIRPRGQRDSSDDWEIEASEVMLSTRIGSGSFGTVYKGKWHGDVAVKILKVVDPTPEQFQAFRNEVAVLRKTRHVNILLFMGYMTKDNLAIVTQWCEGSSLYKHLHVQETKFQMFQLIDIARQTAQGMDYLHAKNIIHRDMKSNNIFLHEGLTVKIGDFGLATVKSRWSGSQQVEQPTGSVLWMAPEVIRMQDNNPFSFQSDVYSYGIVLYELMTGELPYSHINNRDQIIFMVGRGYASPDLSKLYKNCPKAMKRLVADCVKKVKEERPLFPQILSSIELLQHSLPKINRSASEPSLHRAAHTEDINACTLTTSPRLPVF
Procedure, shortened: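 IC50 values come from a four-parameter fit of percent inhibition, using the reaction rate over 4–5 h of a 6 h continuous 340 nm read at 30 °C. The enzyme mix was C-Raf 0.43 nM, MEK substrate 30.1 nM and ATP 1 mM, in a PK/LDH NADH-coupled format in Tris pH 7.5 with 1% DMSO.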

A375 cells = experiment: A375 Cell Proliferation Assay (1); assay type: cell-based; conditions: Homo sapiens, A-375
Procedure, shortened: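 Resazurin fluorescence (excitation 540 nm, emission 600 nm, after a further 5-6 h) gave IC50s from triplicate compound dilution series.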

WM3928 cells = experiment: WM3928 Cell Proliferation Assay (1); assay type: cell-based
Procedure, shortened: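 IC50 was derived from resazurin fluorescence (ex 540, em 600 nm) after a 6–7 h dye incubation. Before that, cells had 67–72 h of compound exposure at 37 °C, 5% CO2.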

Sequence of A-Raf kinase (SEQ. ID No: 1) (P10398 other isoform, or with tags, fused parts or gaps Y301D (already in the parent)/Y302D (already in the parent)): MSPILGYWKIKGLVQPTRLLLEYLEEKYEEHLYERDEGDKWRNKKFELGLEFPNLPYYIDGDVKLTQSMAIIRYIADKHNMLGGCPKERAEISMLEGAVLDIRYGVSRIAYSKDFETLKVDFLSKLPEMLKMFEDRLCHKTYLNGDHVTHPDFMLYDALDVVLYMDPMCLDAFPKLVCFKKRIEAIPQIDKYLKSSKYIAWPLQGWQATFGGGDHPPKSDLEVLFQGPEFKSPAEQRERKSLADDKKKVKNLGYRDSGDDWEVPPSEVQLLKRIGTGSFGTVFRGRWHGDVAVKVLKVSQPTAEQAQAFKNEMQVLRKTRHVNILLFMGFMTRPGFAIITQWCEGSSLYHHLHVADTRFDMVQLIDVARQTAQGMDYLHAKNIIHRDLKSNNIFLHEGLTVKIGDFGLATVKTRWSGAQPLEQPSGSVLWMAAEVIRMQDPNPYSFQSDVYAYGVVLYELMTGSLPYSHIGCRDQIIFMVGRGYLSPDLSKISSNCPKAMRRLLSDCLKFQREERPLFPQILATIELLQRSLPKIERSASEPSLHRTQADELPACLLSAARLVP

SMILES | IC50 [1] [µM] | IC50 [2] [µM] | IC50 (A375 cells) [µM] | IC50 (WM3928 cells) [µM]
Cc1ccc(NC(=O)c2ccnc(C(C)(C)C#N)c2)cc1-c1nccc(-c2ccnc3c2CC(=O)N3)n1 [Example 22] | 1 to 10 | ≤ 0.1 | 1 to 10 | ≤ 0.1
Cc1ccc(NC(=O)c2ccnc(C(C)(C)C#N)c2)cc1-c1ccnc(-c2ccnc3c2CC(=O)N3)c1 [Example 23] | 1 to 10 | ≤ 0.1 | ≤ 0.1 | ≤ 0.1
CC(=O)Nc1cc(-c2nccc(-c3cc(NC(=O)c4ccnc(C(F)(F)F)c4)ccc3C)n2)ccn1 [Example 24] | 0.5 to 1 | ≤ 0.1 | ≤ 0.1 | ≤ 0.1
CNC(=O)c1cc(-c2nccc(-c3cc(NC(=O)c4ccnc(C(F)(F)F)c4)ccc3C)n2)ccn1 [Example 25] | 1 to 10 | ≤ 0.1 | 0.5 to 1 | 0.5 to 1
CNC(=O)c1cc(-c2cc(-c3cc(NC(=O)c4ccnc(C(F)(F)F)c4)ccc3C)cc(C3CC3)n2)ccn1 [Example 27] | 1 to 10 | 0.1 to 0.5 | ≤ 0.1 | ≤ 0.1
CC(=O)Nc1cc(-c2cncc(-c3cc(NC(=O)c4ccnc(C(F)(F)F)c4)ccc3C)n2)ccn1 [Example 29] | 1 to 10 | ≤ 0.1 | 0.1 to 0.5 | ≤ 0.1
CC(=O)Nc1cc(-c2cccc(-c3cc(NC(=O)c4ccnc(C(F)(F)F)c4)ccc3C)c2)ncn1 [Example 30] | 0.5 to 1 | ≤ 0.1 | ≤ 0.1 | ≤ 0.1
Cc1ncc(NC(=O)c2cncc(C(F)F)c2)cc1-c1cccc(-c2cc(NC(=O)C3CC3)ncn2)c1 [Example 280] | 1 to 10 | ≤ 0.1 | 0.1 to 0.5 | ≤ 0.1
Cc1ncc(NC(=O)c2cn(C(C)C)nn2)cc1-c1ccnc(-c2ccnc(NC(=O)C3CC3)c2)n1 [Example 281] | 1 to 10 | ≤ 0.1 | 1 to 10 | 1 to 10
COC(=O)Nc1cc(-c2cccc(-c3cc(NC(=O)c4ccnc(C(C)(C)C#N)c4)cnc3C)c2)ccn1 [Example 282] | 1 to 10 | ≤ 0.1 | ≤ 0.1 | 0.1 to 0.5
Cc1ncc(NC(=O)c2cnn(C(C)(C)C)c2)cc1-c1ccnc(-c2ccnc(NC(=O)C3CC3)c2)n1 [Example 283] | 1 to 10 | ≤ 0.1 | 0.1 to 0.5 | 0.1 to 0.5
Cc1ccc(NC(=O)c2cnnc(C3CC3)c2)cc1-c1cccc(-c2cc(NC(=O)C3CC3)ncn2)c1 [Example 284] | 0.5 to 1 | ≤ 0.1 | ≤ 0.1 | ≤ 0.1
Cc1ncc(NC(=O)c2cn(C(C)C)nn2)cc1-c1nccc(-c2ccnc(NC(=O)C3CC3)c2)n1 [Example 285] | 1 to 10 | ≤ 0.1 | 1 to 10 | 1 to 10
Cc1nc(-c2ccnc(NC(=O)C3CC3)c2)cc(-c2cc(NC(=O)c3ccnc(C4(C#N)CC4)c3)cnc2C)n1 [Example 286] | 1 to 10 | ≤ 0.1 | 0.5 to 1 | 0.1 to 0.5
Cc1nc(-c2ccnc(NC(=O)C3CC3)c2)cc(-c2cc(NC(=O)c3ccnc(C4CC4)c3)cnc2C)n1 [Example 287] | 1 to 10 | ≤ 0.1 | 1 to 10 | 0.1 to 0.5
COC(=O)Nc1cc(-c2cccc(-c3cc(NC(=O)c4ccnc(C5CC5)c4)cnc3C)c2)ccn1 [Example 288] | 1 to 10 | ≤ 0.1 | 1 to 10 | 1 to 10
COC(=O)Nc1nccc(-c2cccc(-c3cc(NC(=O)c4ccnc(C(C)(C)C#N)c4)cnc3C)c2)n1 [Example 290] | 1 to 10 | 0.1 to 0.5 | 1 to 10 | 0.5 to 1
Cc1ncc(NC(=O)c2ccnc(C3CC3)c2)cc1-c1cccc(-c2cc(NC(=O)C3CC3)ncn2)c1 [Example 291] | 1 to 10 | ≤ 0.1 | 0.1 to 0.5 | ≤ 0.1
Cc1ncc(NC(=O)c2ccnc(C3CC3)c2)cc1-c1nccc(-c2ccnc(NC(=O)C3CC3)c2)n1 [Example 295] | 1 to 10 | ≤ 0.1 | 0.5 to 1 | 0.1 to 0.5
COC(=O)Nc1cc(-c2cc(-c3cc(NC(=O)c4ccnc(C(C)(C)C#N)c4)cnc3C)ccn2)ccn1 [Example 297] | 1 to 10 | ≤ 0.1 | ≤ 0.1 | ≤ 0.1
Cc1cc(F)c(NC(=O)c2ccnc(C(C)(C)C#N)c2)cc1-c1cc(-c2ccnc(NC(=O)C3CC3)c2)cnn1 [Example 298] | 1 to 10 | ≤ 0.1 | 0.1 to 0.5 | 0.1 to 0.5

SMILES | IC50 [1] [µM] | IC50 [2] [µM] | IC50 (A375 cells) [µM] | IC50 (WM3928 cells) [µM]
COC(=O)Nc1cc(-c2cnnc(-c3cc(NC(=O)c4ccnc(C(C)(C)C#N)c4)c(F)cc3C)c2)ccn1 [Example 299] | 1 to 10 | ≤ 0.1 | 0.1 to 0.5 | 0.5 to 1
Cc1cc(F)c(NC(=O)c2ccnc(C(C)(C)F)c2)cc1-c1ccnc(-c2ccnc(NC(=O)C3CC3)c2)c1 [Example 300] | 1 to 10 | ≤ 0.1 | ≤ 0.1 | ≤ 0.1
Cc1ncc(NC(=O)c2ccnc(C(C)(C)C#N)c2)cc1-c1cccc(-c2ccnc(C(N)=O)c2)c1 [Example 301] | 1 to 10 | ≤ 0.1 | 0.1 to 0.5 | 0.1 to 0.5
COC(=O)Nc1cc(-c2cc(-c3cc(NC(=O)c4ccnc(C(C)(C)F)c4)c(F)cc3C)ccn2)ccn1 [Example 302] | 1 to 10 | ≤ 0.1 | ≤ 0.1 | ≤ 0.1
COC(=O)Nc1cc(-c2nccc(-c3cc(NC(=O)c4ccnc(C(C)(C)C#N)c4)c(F)cc3C)n2)ccn1 [Example 303] | 1 to 10 | ≤ 0.1 | ≤ 0.1 | ≤ 0.1
COC(=O)Nc1cc(-c2nccc(-c3cc(NC(=O)c4ccnc(C(C)(C)F)c4)c(F)cc3C)n2)ccn1 [Example 304] | 1 to 10 | ≤ 0.1 | 0.1 to 0.5 | ≤ 0.1
COC(=O)Nc1cc(-c2cnnc(-c3cc(NC(=O)c4ccnc(C(C)(C)C#N)c4)ccc3C)c2)ccn1 [Example 305] | 1 to 10 | ≤ 0.1 | 0.1 to 0.5 | 0.1 to 0.5
Cc1cc(F)c(NC(=O)c2ccnc(C(F)F)c2)cc1-c1ccnc(-c2ccnc(NC(=O)C3CC3)c2)c1 [Example 307] | 0.5 to 1 | ≤ 0.1 | 0.5 to 1 | 0.1 to 0.5
COC(=O)Nc1cc(-c2cc(-c3cc(NC(=O)c4ccnc(C(C)(C)C#N)c4)c(F)cc3C)ccn2)ccn1 [Example 308] | 1 to 10 | ≤ 0.1 | ≤ 0.1 | ≤ 0.1
COC(=O)Nc1cc(-c2cc(-c3cc(NC(=O)c4ccnc(C(F)(F)F)c4)cnc3C)ccn2)ccn1 [Example 312] | 1 to 10 | ≤ 0.1 | 0.1 to 0.5 | 1 to 10
COC(=O)Nc1cc(-c2cc(-c3cc(NC(=O)c4ccnc(C(F)F)c4)cnc3C)ccn2)ccn1 [Example 313] | 1 to 10 | ≤ 0.1 | 1 to 10 | 1 to 10
CNC(=O)c1cc(-c2cnnc(-c3cc(NC(=O)c4ccnc(C(C)(C)C#N)c4)ccc3C)c2)ccn1 [Example 314] | 1 to 10 | 0.1 to 0.5 | 0.1 to 0.5 | 0.5 to 1
COC(=O)Nc1cc(-c2cnnc(-c3cc(NC(=O)c4ccnc(C(C)(C)F)c4)cnc3C)c2)ccn1 [Example 361] | 1 to 10 | ≤ 0.1 | 1 to 10 | 
COC(=O)Nc1cc(-c2cnnc(-c3cc(NC(=O)c4ccnc(C5CC5)c4)cnc3C)c2)ccn1 [Example 362] | 1 to 10 | ≤ 0.1 | 1 to 10 | 
COC(=O)Nc1cc(-c2cnnc(-c3cc(NC(=O)c4ccnc(C(F)F)c4)cnc3C)c2)ccn1 [Example 363] | 1 to 10 | 0.1 to 0.5 | 1 to 10 | 
COCCNC(=O)c1cc(-c2cnnc(-c3cc(NC(=O)c4cccc(C5CC5)c4)ccc3C)c2)ccn1 [Example 365] | 1 to 10 | 0.1 to 0.5 | 1 to 10 | 
CNC(=O)c1cc(-c2cnnc(-c3cc(NC(=O)c4cn(C(C)(C)C)nn4)ccc3C)c2)ccn1 [Example 366] | 1 to 10 | 0.1 to 0.5 | 1 to 10 | 
Cc1ccc(NC(=O)c2cc(C(C)(C)C)no2)cc1-c1cc(-c2ccnc(NC(=O)C3CC3)c2)cnn1 [Example 367] | 1 to 10 | ≤ 0.1 | 0.1 to 0.5 | 
COC(=O)Nc1cc(-c2cnnc(-c3cc(NC(=O)CC4CCCC4)cnc3C)c2)ccn1 [Example 368] | 1 to 10 | 1 to 10 | 1 to 10 | 
Cc1ccc(NC(=O)c2ccnc(C(C)(C)C#N)c2)cc1-c1cc(-c2ccnc3[nH]ccc23)cnn1 [Example 369] | 1 to 10 | ≤ 0.1 | 1 to 10 | 
Cc1ccc(NC(=O)c2ccnc(C(C)(C)C#N)c2)cc1-c1cc(-c2ccnc(C(=O)NC3CC3)c2)cnn1 [Example 372] | 1 to 10 | 0.5 to 1 | 1 to 10 | 
